# Test results: patent US6641783B1, “Chromatographic systems with pre-detector eluent switching” (priority 1999, dated 2003)
# What was measured:
# [1] = Capacity factor of the test solute on an immobilized artificial membrane HPLC column; format: physicochemical; details: EsterIAM.PC C10/C3 column, 15% acetonitrile in PBS, 1 mL/min
# Description: (§1) The chromatographic process represents a reversible equilibrium of solutes between the mobile phases and the stationary phases. The magnitude of solute retention is a direct result from this equilibrium and is typically expressed by a parameter, the capacity factor, k′=(tr−to)/to where to is the dead time and tr is the retention time of the solutes. The capacity factor is therefore a stoichiometric mass distribution equilibrium of solutes between the mobile phases and the stationary phases, and its determination allows the calculation of various physicochemical values according to pre-determined algorithms.
# (§2) Unless otherwise indicated, the experimental data reported in this section was collected under the following conditions: UV detection at 280 nm, UV flow cell: 14 μL, mobile phase: 15% acetonitrile in PBS buffer at 1 mL/min., injection volume: 10 μL (sample amount: 2 μg), eluent switch rate: 1 Hz/column, and one pump per column (one binary pump used at two different pumps).
# (§3) Retention time data is reported as capacity factors k′=(tr−to)/to. The most critical preliminary data to obtain, however, was to experimentally determine the minimum peak washing times (volumes) needed to obtain good chromatographic peak characterization with the hardware designed and assembled as shown in FIG. 7. […]
# [2] = Capacity factor of the test solute on a C8 HPLC column; format: physicochemical; details: 15% acetonitrile in PBS, 1 mL/min
# Description: as §1, §2, §3
# [3] = Eluent Switch (parallel chromatography), 1 Hz/column
# [4] = No Switch (single column chromatography)
compound,measurement,setting,value
COc1ccc(C)cc1 [4-methylanisole],k′ (Capacity factor),[1]; [3],7.13
same,k′ (Capacity factor),[1]; [4],7.48
same,k′ (Capacity factor),[2]; [3],23.71
same,k′ (Capacity factor),[2]; [4],23.04
